# Measured values taken from US10662140B2, “Method for skin-whitening using composition containing resveratryl triglycolate” (KYUNGPOOK NATIONAL UNIVERSITY INDUSTRY-ACADEMIC COOPERATION …, priority 2016, dated 2020).
# Read-outs that look alike come from different tables or passages of the source.
# Columns and labels:
# [1] = tested on: cultivated melanocytes and a reconstituted skin tissue model; details: cited from earlier work
# [2] = tested on: Human epidermal melanocytes (HEM); details: HEMs, 48 hours
# HEMs = test: Melanin synthesis in L-tyrosine-stimulated HEMs; type: cell-based, human; details: for effect on melanin synthesis: concentrations of up to 10 μM
# Experimental: Human epidermal melanocytes (HEM) derived from neonatal human foreskins were purchased from Cascade Biologics (Portland, Oreg., USA). The HEMs were cultivated in Medium 254 supplemented with human melanocyte growth supplements (Cascade Biologics) and antibiotics.
# The extracellular melanin levels were evaluated by measuring the absorbance of the conditioned media at a wavelength of 490 nm, while the intracellular melanin levels were evaluated after extracting melanin from the cells using 0.1 M NaOH at 60° C. for 60 minutes. The values for melanin content were normalized with respect to the protein content in each sample. The protein content was evaluated using the Bio-Rad DC assay (Bio-Rad Laboratories, Inc., Hercules, Calif., USA).
# [3] = tested on: human epidermal melanocytes; details: cited from earlier work
structure (smiles),measurement,setting,value
"CC(=O)Oc1ccc(C=Cc2cc(OC(C)=O)cc(OC(C)=O)c2)cc1 [RTA, resveratryl triacetate]",stability to oxidation,[1]; compared to resveratrol,higher stability
same,toxicity,[1]; compared to resveratrol,less toxic
same,melanin synthesis,[1]; cultivated melanocytes and reconstituted skin tissue model,effective inhibitor
same,cytotoxicity,[2]; concentrations above 30 μM,showed cytotoxicity
same,cytotoxicity,[2]; concentrations below 30 μM,barely showed cytotoxicity
O=C(CO)Oc1ccc(/C=C/c2cc(OC(=O)CO)cc(OC(=O)CO)c2)cc1 [resveratryl triglycolate],melanin level,HEMs,reduced
Oc1ccc(C=Cc2cc(O)cc(O)c2)cc1 [resveratrol],activity of MITF and TYR promoter,[3],suppresses
same,melanin synthesis,[3],inhibit melanin synthesis
"O=C(O)CO [GA, glycolic acid]",effect on melanin synthesis,HEMs,no significant effect
OC[C@H]1O[C@@H](Oc2ccc(O)cc2)[C@H](O)[C@@H](O)[C@@H]1O [arbutin],effect on melanin synthesis,HEMs,no effect
same,effect on melanin synthesis,HEMs; listed as Arbutin,no significant effect
